One assay relates to guinea pigs. Put plainly: Acetylcholine chloride/histamine spray-induced asthma, incubation period. Format: in vivo, guinea pig. The conditions noted are these: for asthma incubation period: 0.2 mM in normal saline sprayed 10 min, challenge after 10 min, recorded as 240 s if no convulsion and fall; for efficacy in asthma model, in words: 0.2 mM spray. Here is the method:
On the first day, guinea pigs are placed in a 38×38×38 cm (about 55 L) of home-made container with an atomizing nozzle having a diameter of about 3 cm above the side wall. Ultrasonic atomizer (YUWELL, model 402AI) is used to spray normal saline containing acetylcholine chloride (20 g/L) and histamine (1 g/L) for 15 s. The incubation period of asthma of guinea pigs (also is called asthma incubation period, which is the time from the end of the spray to asthma attack, extreme breathing difficulty until convulsion and fall) is recorded after the cessation of spraying. Animals with an incubation period of less than 120 s are qualified sensitive animals.
2. Experimental Processes
On the second day, the qualified animals are selected for experiments, wherein one group (comprising 4 guinea pigs) is used as the control group, one group (comprising 4 guinea pigs) is experimented with positive medicine […] and one group (comprising 10 guinea pigs) is experimented with the drug to be tested. The animals are placed in a container, and sprayed with normal saline, tiotropium bromide and the compound to be tested. Both tiotropium bromide and the compound to be tested are soluble in normal saline at a concentration of 0.2 mM. After spraying for 10 min, the guinea pigs are taken out and put into another container of the same size. After 10 min, normal saline containing acetylcholine chloride (20 g/L) and histamine (1 g/L) is sprayed into the container for 15 s. The incubation periods of asthma of the guinea pigs are observed and recorded. If there is no convulsion and fall after 240 s, the incubation period is recorded as 240 s.

The next assay deals with T1, M1 receptor (Homo sapiens, UniProt P11229).
T1 construct: expressed in transfected cells; host or cells: CHO-K1
T1 sequence (P11229 1-460): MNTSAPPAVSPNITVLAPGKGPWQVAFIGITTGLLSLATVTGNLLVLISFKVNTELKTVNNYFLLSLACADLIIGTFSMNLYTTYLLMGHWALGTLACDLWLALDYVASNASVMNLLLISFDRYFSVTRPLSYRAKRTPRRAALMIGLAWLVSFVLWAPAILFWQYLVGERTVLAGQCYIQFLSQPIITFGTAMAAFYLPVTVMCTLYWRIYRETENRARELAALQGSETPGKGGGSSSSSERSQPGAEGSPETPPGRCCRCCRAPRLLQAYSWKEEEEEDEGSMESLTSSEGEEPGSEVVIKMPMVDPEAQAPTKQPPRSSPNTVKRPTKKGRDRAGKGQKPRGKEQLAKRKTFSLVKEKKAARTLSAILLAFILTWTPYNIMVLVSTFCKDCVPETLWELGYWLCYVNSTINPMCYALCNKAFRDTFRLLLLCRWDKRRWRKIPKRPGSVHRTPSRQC
Briefly: DMR assay, antagonism of acetylcholine in CHO-K1 cells stably transfecting the M1 receptor. The conditions noted are these: for IC50: CHO-K1-M1 cells, DMR, acetylcholine 1 μM, 1 h pretreatment, time point 5 min; for antagonistic activity against the M1 receptor, in words: structure-activity comparison with parent compound. Format: cell-based. How it is done:
(§1) The present invention relates to the antagonistic activity of the compound against the muscarinic receptor, which is primarily assessed by a cell-level dynamic mass redistribution (DMR) assay method. All tests are carried out on Epic platform, wherein the target model of the muscarinic receptor M1 is the CHO-K1 ceil model stably transfecting the M1 receptor, the target model of M3 is the HT-29 cell model endogenously highly expressing the M3 receptor, and the selected probe molecule is acetylcholine. Tire probe molecule acetylcholine is dissolved in water, while all other compounds are dissolved in DMSO.
The inoculated cell plate is placed in a cell incubator for culture for 12 h until the cell growth and fusion degree reaches about 95%, and the activity assay is carried out. The culture medium is sucked from the cultured ceils, the buffer salt specified by the test is added with a volume of 30 μL per orifice and is stabilized for 1 h. After the baseline is stable, a 2-min baseline is established, and different concentrations of compounds to be tested are added to test the cultured cells for 1 h. After the cells are pretreated with the compounds to be tested for 1 h, the 2-min baseline is re-established, and acetylcholine having a concentration of 1 μM is added to test the cultured cells for 1 h.

For another assay, the target named is T2, M3 receptor (Homo sapiens, UniProt P20309).
T2 construct: HT-29 cell model endogenously highly expressing the M3 receptor; endogenous in cells; host or cells: HT-29
T2 sequence (P20309 whole entry): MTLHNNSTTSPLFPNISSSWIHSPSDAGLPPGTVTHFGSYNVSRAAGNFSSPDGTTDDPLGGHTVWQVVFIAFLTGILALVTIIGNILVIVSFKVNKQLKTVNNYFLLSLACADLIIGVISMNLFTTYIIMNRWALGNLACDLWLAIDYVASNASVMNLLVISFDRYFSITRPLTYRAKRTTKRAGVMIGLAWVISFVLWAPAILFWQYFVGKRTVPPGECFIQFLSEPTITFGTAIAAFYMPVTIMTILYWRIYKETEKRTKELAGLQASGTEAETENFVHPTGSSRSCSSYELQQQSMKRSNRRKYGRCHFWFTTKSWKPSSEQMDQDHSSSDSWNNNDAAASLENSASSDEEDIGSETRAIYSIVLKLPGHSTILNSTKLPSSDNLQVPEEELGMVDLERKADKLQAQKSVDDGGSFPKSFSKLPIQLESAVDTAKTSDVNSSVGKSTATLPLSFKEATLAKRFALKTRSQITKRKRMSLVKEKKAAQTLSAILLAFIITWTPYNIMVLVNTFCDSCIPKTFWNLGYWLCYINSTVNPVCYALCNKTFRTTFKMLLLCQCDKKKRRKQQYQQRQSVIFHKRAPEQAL
Briefly: DMR assay, antagonism of acetylcholine in HT-29 cells endogenously expressing the M3 receptor. Type of assay: cell-based. The conditions noted are these: for IC50: HT-29 cells, DMR, acetylcholine 16 μM, 1 h pretreatment, time point 30 min; for antagonistic activity against the M3 receptor, in words: structure-activity comparison with parent compound. How it is done: as §1
The inoculated cell plate is placed in a cell incubator for culture for 20 h until the cell growth and fusion degree reaches about 95%, and the activity assay is carried out. The culture medium is sucked from the cultured cells, the buffer salt specified by the test is added with a volume of 30 μL per orifice and is stabilized for 1 h. After the baseline is stable, a 2-min baseline is established, and different concentrations of compounds to be tested are added to test the cultured cells for 1 h.

The term IC50 denotes the concentration that inhibits the measured activity by half. For `C[N+]1(C)CCCCC1CC(c1ccccc1)c1ccccc1O.[Br-]` (centres unmarked) [I-2a-1-Br, 2-[2-(2-hydroxy-phenyl)-phenethyl]-N,N-dimethylpiperidine Bromide], the asthma incubation period in the assay on guinea pigs is 228.9 ± 4.7 s. The “efficacy in asthma model, in words” value with guinea pigs is given as “good efficacy”. Also, the results for the IC50 at M1 receptor and on M3 receptor were 8.8 ± 2.6 nM and 5.7 ± 1.1 nM, respectively.
For the molecule `C[N+]1(C)CCCCC1CC(c1ccccc1O)c1ccccc1O.[Br-]` (centres unmarked) [I-3-1-Br, 2-[2,2-bis(2-hydroxy-phenyl)ethyl]-N,N-dimethylpiperidine Bromide], in the assay with guinea pigs, the asthma incubation period was found to be 240 s and the “efficacy in asthma model, in words” value is on record as “good efficacy”. The IC50 at M1 receptor was determined as 18.5 ± 3.6 nM. Moreover, at M3 receptor, the IC50 was 6 ± 1.1 nM.
The matching figures for `C[N+]1(C)CCCCC1CC(c1ccccc1O)c1ccccc1O.[Br-]` (centres unmarked) [I-3-2-Br, 2-[2,2-bis(2-hydroxy-phenyl)ethyl]-N,N-dimethylpiperidine Bromide]: 233.1 ± 21.8 s, “good efficacy”, 43.7 ± 15.3 nM and 11 ± 3.6 nM.
With `C[N+]1(C)CCCCC1CC(c1ccccc1)c1cc(F)ccc1O.[Br-]` (centres unmarked) [I-10a-1, 2-[2-(2-hydroxy-5-fluorophenyl)-phenylethyl]-N,N-dimethylpiperidine bromide], in the assay on guinea pigs, the asthma incubation period is 240 s and the “efficacy in asthma model, in words” value is reported as “good efficacy”. In addition, the IC50 on M3 receptor turned out to be 37 ± 4.3 nM.
Consider `CCN1CCCCC1CC(c1ccccc1)c1cc(C)ccc1O` (centres unmarked) [II-18, 2-[2-(2-hydroxy-5-methyl-phenyl)-phenethyl]-N-ethylpiperidine], for which the IC50 at M1 receptor stood at 296 ± 62.9 nM; on M3 receptor, 239 ± 33.2 nM.
The matching figures for `Cc1ccc(O)c(C(CC2CCCN2C)c2ccccc2)c1` (centres unmarked) [II-19]: 74.5 ± 6 nM and 137 ± 22.9 nM.
The corresponding values for `CCc1ccc(O)c(C(CC2CCCN2C)c2ccccc2)c1` (centres unmarked) [II-20] are 63 ± 7.5 nM and 258 ± 30.4 nM.
Turning to `CN1CCCCC1CC(c1ccccc1)c1cccs1` (centres unmarked) [II-21], the IC50 at M1 receptor was 3680 ± 810 nM; at M3 receptor, 2420 ± 330 nM.
With `Cc1ccc(OC(=O)C(C)C)c(C(CC2CCCCN2C)c2ccccc2)c1` (centres unmarked) [II-23, 2-[2-(2-isobutyryl estergroup-5-methyl-phenyl)-phenethyl]-N-methylpiperidine], on M1 receptor, the IC50 turned out to be 1900 ± 500 nM and the “antagonistic activity against the M1 receptor, in words” value was “the activity is greatly decreased”. For the same molecule, at M3 receptor, the half-inhibitory concentration (IC50) amounted to 690 ± 160 nM and the “antagonistic activity against the M3 receptor, in words” value was “the activity is greatly decreased”.
With `CC(=O)Oc1ccc(C)cc1C(CC1CCCCN1C)c1ccccc1` (centres unmarked) [II-24, 2-[2-(2-acetategroup-5-methyl-phenyl)-phenethyl]-N-methylpiperidine], at M1 receptor, the IC50 amounted to 3340 ± 210 nM and the “antagonistic activity against the M1 receptor, in words” value was “the activity is greatly decreased”. For the same molecule, at M3 receptor, the concentration for half-maximal inhibition (IC50) stood at 1210 ± 120 nM and the “antagonistic activity against the M3 receptor, in words” value is “the activity is greatly decreased”.
As to `Cc1ccc(OC(=O)c2ccccc2)c(C(CC2CCCCN2C)c2ccccc2)c1` (centres unmarked) [II-25, 2-[2-(2-benzoate Group-5-methyl-phenyl)-phenethyl]-N-methylpiperidine], at M1 receptor, the half-inhibitory concentration (IC50) was determined as 1600 ± 200 nM and the “antagonistic activity against the M1 receptor, in words” value is reported as “the activity is greatly decreased”. Moreover, at M3 receptor, the IC50 stood at 2970 ± 700 nM and the “antagonistic activity against the M3 receptor, in words” value is “the activity is greatly decreased”.
In the case of `Cc1ccc(S(=O)(=O)Oc2ccc(C)cc2C(CC2CCCCN2C)c2ccccc2)cc1` (centres unmarked) [II-26, 2-[2-(2-methylp-toluenesulfonategroup-5-methyl-phenyl)-phenethyl]-N-methylpiperidine], at M1 receptor, the “antagonistic activity against the M1 receptor, in words” value is “the activity is greatly decreased”. At M3 receptor, the concentration for half-maximal inhibition (IC50) was 2620 ± 425 nM and the “antagonistic activity against the M3 receptor, in words” value was “the activity is greatly decreased”.

For the origin of these results see patent US11274079B2 (DALIAN INSTITUTE OF CHEMICAL PHYSICS, CHINESE ACADEMY OF …, priority 2018, dated 2022).
